{"source": "patent US8252522B2", "about": "“Species detection methods and systems” (The Regents of the University of California, priority 2007, dated 2012)", "key": {"[1]": {"test_system": "different bacteria (E. coli and two bacilli)", "description": "Kinetics of fluorescence enhancement of 64 μM THIA in the presence of different bacteria (10^6 cell/mL) in TRIS buffer, pH=8.5 (λex=420 nm, λem=470 nm). The time constants, τ, are inversely proportional to the rate constants, k=1/τ. The biexponential data fits assume pseudo-first-order processes. At about 50 s into the data acquisition, the bacteria are injected and into a stirred solution of the dye.\nTo simplify the kinetic analysis, the assays can be conducted under two types of extreme conditions that will assure that the first step, k1, can be approximated to pseudo-first-order process: (1) the dye is in excess to the binding sites on the bacterial surface; or (2) the binding sites on the bacterial surface are in excess to the dye. Under such conditions, the kinetics of fluorescence enhancement should manifest bi- (or multi-) exponential rises:\n[formula] where FM is the maximum fluorescence intensity (the saturation level on the curves); dt is the injection time; Fi are the pre-exponential coefficients; and ti are the time constants for the various processes: τi=1/ki. […]\nThe samples are illuminated at a region where the staining dye absorbs and the emission is monitored (the fluorescence intensity is recorded every second) at the wavelength maximum of the fluorescence spectrum of the dye (FIG. 2). […] This plateau emission maximum is what is measured with the regular staining procedures. […]"}, "bacterial spores [2]": {"test_system": "bacterial spores", "settings": "steady-state, incubated for five minutes", "procedure": "(§1) A solution of a benzothiazole dye, THIA, was used (FIG. 1a), in a continuous-flow microfluidic device for detection of bacterial species, as described for a terbium (III) different emission assay.\n(§2) For the steady-state experiments the dye is mixed with the samples and allowed to incubate for five minutes. In the microfluidic device, however, the dye is mixed with the bacterial sample and carried to the area for emission detection in about few seconds after the mixing."}, "[3]": {"test_system": "bacterial spores vs vegetative bacteria", "settings": "microfluidic device, detection about few seconds after mixing", "procedure": "as §1, §2"}, "bacterial spores [4]": {"test_system": "bacterial spores", "settings": "within the duration of the mixing"}}, "data": [{"smiles": "CCN1/C(=C/c2sc3ccccc3[n+]2CC)Sc2ccccc21.[I-]", "note": "[THIA, 3,3′-Diethylthiacyanine iodide]", "values": [{"measurement": "response to staining", "setting": "[1]; all three species", "result": "positive response"}, {"measurement": "duration of the emission intensity increase after initial mixing", "setting": "[1]; vegetative bacteria", "result": "continues to increase for several minutes"}, {"measurement": "increase in emission intensity in the presence of bacterial spores", "setting": "bacterial spores [2]", "result": "about an order of magnitude increase"}, {"measurement": "signal from bacterial spores relative to signal from vegetative bacteria", "setting": "[3]", "result": "about 13 times"}, {"measurement": "time of emission enhancement by bacterial spores", "setting": "bacterial spores [4]", "result": "within a second or less"}]}]}
